According to PMC13052201, “Positional scanning and computational modeling reveal determinants of legumain transpeptidase activity” (Protein Science : A Publication of the Protein Society, 2026):
Where a SMILES comes first, the peptide text is derived from it. The star is where a group is joined. AMC = Cc1cc(=O)oc2cc(N*)ccc12; Cbz = O=C(OCc1ccccc1)*

What was measured:
[1] = target: T1, human legumain (hLEG) (Homo sapiens, UniProt Q99538); assay: Enzyme kinetic assay with fluorogenic AMC substrates, hLEG; type: biochemical; conditions: 2 nM hLEG; for Km: 50 mM citric acid pH 5.5, 100 mM NaCl, 0.05% Tween-20, 37°C, ex 380/em 460 nm, Michaelis-Menten (Z-AAN-AMC) or substrate inhibition model (Z-VAN-AMC)
T1 construct: inferred from the Ni-NTA purification of the proenzyme; made in house; host or cells: LEXSY P10 cells (Leishmania tarentolae expression system), secreted into the supernatant
T1 sequence (Q99538 18-323 limits assumed): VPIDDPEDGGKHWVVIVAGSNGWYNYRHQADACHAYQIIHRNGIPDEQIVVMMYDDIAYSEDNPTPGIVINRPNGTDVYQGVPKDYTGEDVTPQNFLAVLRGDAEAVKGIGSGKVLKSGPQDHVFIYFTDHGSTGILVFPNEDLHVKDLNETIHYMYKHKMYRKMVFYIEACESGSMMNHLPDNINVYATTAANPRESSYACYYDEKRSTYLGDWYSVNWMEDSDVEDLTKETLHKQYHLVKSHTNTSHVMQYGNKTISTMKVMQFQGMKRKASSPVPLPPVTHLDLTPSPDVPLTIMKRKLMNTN
Protocol: K m values for the substrates Z‐AAN‐AMC (benzyloxycarbonyl‐Ala‐Ala‐Asn‐7‐amino‐4‐methylcoumarin) and Z‐VAN‐AMC (benzyloxycarbonyl‐Val‐Ala‐Asn‐7‐amino‐4‐methylcoumarin) toward hLEG were determined in 50 mM citric acid buffer (pH 5.5) containing 100 mM NaCl and 0.05% Tween‐20. Reactions were carried out at 37°C with 2 nM hLEG. Substrate concentrations ranged from 100 to 0.787 μM for Z‐AAN‐AMC and from 75 to 0.28 μM for Z‐VAN‐AMC.
Reactions were initiated by addition of the enzyme, and fluorescence was monitored in a microplate reader (CLARIOstar Plus with Voyager v2405 software, BMG Labtech) at 380 nm excitation and 460 nm emission. All measurements were performed in triplicate (n = 3).
Data analysis was performed in GraphPad Prism (v9.3.1; GraphPad Software, La Jolla, CA) using the built‐in Michaelis–Menten model for Z‐AAN‐AMC and the substrate inhibition model for Z‐VAN‐AMC. Data points corresponding to 23.73 μM Z‐VAN‐AMC were excluded from analysis, as a linear fit of the initial slope was not possible. Standard errors of the curve fits are reported for all fitted parameters.

[2] = test system: AtLEGβ; conditions: ref Dall et al., [2020]; cited from earlier work
From the text: To probe non‐prime side specificity, we constructed a second peptide library using the format XXXN‐CL, fixing P1' as cysteine and P2' as leucine, based on the highest‐scoring sequences from the prime‐side screen. […] Thr and Val were especially well tolerated, a trend that persisted when P2 was fixed as Ala and P3/P4 were varied (Figure S7b). These predictions were validated experimentally by comparing AtLEGβ affinity for Z‐AAN‐AMC versus Z‐VAN‐AMC fluor ...

[3] = pH 5.5, 37°C, n = 3, ± standard error of fit (Figure 9)

| Km ([1]; n = 3, ± standard error of fit) [µM] | Km ([1]; n = 3, ± standard error of fit, listed as Z-AAN-AMC) [µM] | Vmax ([1]; pH 5.5, 37°C, n = 3) [RFU/s] | Vmax [1, 3] [RFU/sec] | Km ([1]; n = 3, ± standard error of fit, listed as Z-VAN-AMC) [µM] | Vmax ratio Z-VAN-AMC vs Z-AAN-AMC ([1]; pH 5.5, 37°C) | Ki ([1]; pH 5.5, 37°C, substrate inhibition model, n = 3, ± standard error of fit) [µM] | Compound | Km [2] [µM] |
| --- | --- | --- | --- | --- | --- | --- | --- | --- |
| 55 | 55.5 ± 2.4 | 400 | 399.6 ± 8.6 |  |  |  | benzyloxycarbonyl‐Ala‐Ala‐Asn‐7‐amino‐4‐methylcoumarin [Z‐AAN‐AMC] | 337 ± 3 |
| ~20 |  | 7800 | 7776 ± 1591 | 19.6 ± 5.32 | ~ 20 fold | 16.2 ± 4.5 | Cc1cc(=O)oc2cc(NC(=O)[C@H](CC(N)=O)NC(=O)[C@H](C)NC(=O)[C@@H](NC(=O)OCc3ccccc3)C(C)C)ccc12 [Z‐VAN‐AMC, benzyloxycarbonyl‐Val‐Ala‐Asn‐7‐amino‐4‐methylcoumarin] (Cbz-Val-Ala-Asn-{AMC}) | 57 ± 3 |
